Experimental data as given in US20120077836A1, “METHODS OF ADMINISTERING (4AR,10AR)-1-N-PROPYL-1,2,3,4,4A,5,10,10A-OCTAHYDROBENZO [G] QUINOLINE-6,7-DIOL AND RELATED COMPOUNDS ACROSS THE ORAL MUCOSA, THE NASAL MUCOSA OR THE SKIN AND PHARMACEUTICAL COMPOSITIONS THEREOF” (priority 2009, published 2012).
Structures can show the parent of a compound that is named as a salt. Where two headings read alike, the source gives them in different places.

Key:
[1] = molecular target: T1, human recombinant D1 receptor (Homo sapiens, UniProt P21728); assay: D1 cAMP assay; format: cell-based
T1 construct: expressed in transfected cells
T1 sequence (P21728 whole entry): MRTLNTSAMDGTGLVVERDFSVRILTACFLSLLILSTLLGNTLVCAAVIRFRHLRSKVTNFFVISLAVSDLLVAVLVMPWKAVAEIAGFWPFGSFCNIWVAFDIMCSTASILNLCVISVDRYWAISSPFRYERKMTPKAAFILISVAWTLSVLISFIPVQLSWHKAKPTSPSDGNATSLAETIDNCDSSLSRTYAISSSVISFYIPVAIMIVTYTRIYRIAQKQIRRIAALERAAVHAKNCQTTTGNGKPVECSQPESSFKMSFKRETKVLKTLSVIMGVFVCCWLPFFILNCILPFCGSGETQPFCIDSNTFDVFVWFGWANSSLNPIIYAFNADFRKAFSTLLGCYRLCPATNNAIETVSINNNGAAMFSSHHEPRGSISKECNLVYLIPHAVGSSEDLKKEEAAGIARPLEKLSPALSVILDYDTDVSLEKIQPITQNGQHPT
Procedure: The ability of the compounds to either stimulate or inhibit the D1 receptor mediated cAMP formation in CHO cells stably expressing the human recombinant D1 receptor was measured as follows. Cells were seeded in 96-well plates at a concentration of 11000 cells/well 3 days prior to the experiment.

[2] = molecular target: T2, hD5-transfected CHO-Ga16 cells (Homo sapiens, UniProt P21918); assay: D5 assay, intracellular Ca2+ release (FLIPR); format: cell-based
T2 construct: expressed in transfected cells; host or cells: CHO-Ga16 cells
T2 sequence (P21918 whole entry): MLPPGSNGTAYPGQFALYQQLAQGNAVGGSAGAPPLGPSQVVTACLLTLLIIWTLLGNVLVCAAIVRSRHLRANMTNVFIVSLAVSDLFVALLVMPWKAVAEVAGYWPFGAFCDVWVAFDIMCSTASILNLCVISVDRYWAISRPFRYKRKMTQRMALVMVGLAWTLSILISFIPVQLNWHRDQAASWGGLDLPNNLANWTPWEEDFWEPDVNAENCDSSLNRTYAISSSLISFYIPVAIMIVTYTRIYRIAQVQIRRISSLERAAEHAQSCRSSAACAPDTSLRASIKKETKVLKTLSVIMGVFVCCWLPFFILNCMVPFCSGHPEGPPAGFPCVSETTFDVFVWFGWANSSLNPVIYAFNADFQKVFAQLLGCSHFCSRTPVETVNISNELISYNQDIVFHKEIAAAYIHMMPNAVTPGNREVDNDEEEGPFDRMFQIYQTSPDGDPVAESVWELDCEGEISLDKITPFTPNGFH

[3] = system: rats with unilateral 6-OHDA lesions; assay: D1/D2 dissection, rotation response in rats with unilateral 6-OHDA lesions; format: in vivo, rat
Description: Rats weighing 200-250 g were subjected to unilateral 6-OHDA lesions. […] Nemonapride is a D2 antagonist that blocks the D2 receptors, therefore any observed rotations would be dependent upon activity at the D1 receptors.

reserpinesed rats = assay: Reversal of reserpine-induced hypomotility in rats; format: in vivo, rat; conditions: for activity count: reserpine 5 mg/kg SC 23-24 h before, over 3 hours
Procedure: Rats weighing ca. 200 g were treated with reserpine (5 mg/kg subcutaneously as a solution in 20% aqueous solutol for which pH was adjusted to 4 with methanesulfonic acid). […] Group 1: treated with 20% ethanol in 0.7% aqueous sodium chloride subcutaneously.

MPTP/AMPT mouse model = assay: Superiority model, hypomotility in the MPTP/AMPT mouse model; format: in vivo; conditions: for activity count (0.5-1.5 h): AMPT 250 mg/kg SC
Procedure: MPTP (1-methyl-4-phenyl-1,2,3,6-tetrahydropyridine) is a neurotoxin that causes permanent symptoms of Parkinson's disease by killing certain neurons in the substantia nigra of the brain. It is used to study the disease in monkeys and mice. […] Various compounds (all dosed subcutaneously) were tested for their ability to reverse the motility deficits produced in this model.

[4] = system: rats with unilateral 6-OHDA lesions; assay: Rotation response in 6-OHDA rats after transdermal delivery; format: in vivo, rat
Procedure: We have used rats with unilateral 6-OHDA lesions to assess compound 10 for its ability to induce rotation after transdermal administration [for details on the model, see the description under example 7]. Three groups of six animals were treated with different doses of compound 10 administered transdermally. Compound 10 (24 mg) was suspended in a mixture of 0.02% ascorbic acid and 20% ethanol in saline (9 mL); the resulting suspension was diluted with dimethyl sulfoxide (0.45 mL). The appropriate amount of this formulation was applied to the ears of the animals. The ears were rubbed gently before the rotation response of the animals was assessed over 3 h. […]

[5] = system: unilaterally lesioned 6-OHDA rats; format: in vivo, rat
Procedure: Animals were generated as described under example 7. Four groups of animals were dosed with various doses of compound 10 (group 1, 1 microg/kg; group 2, 10 microg/kg; group 3, 25 microg/kg; group 4, 50 microg/kg). In all cases, compound 10 was administered in one of the nostrils in a volume of 20 microL of a solution of the appropriate concentration in 20% ethanol in 0.7% aqueous sodium chloride containing 0.02% ascorbic acid. The drug solution was applied to one of the nostrils and the nose was gently massaged to ensure distribution of the administered solution over the nasal mucosa. The degree of rotation behaviour of the animals was recorded over the next 3 hours.

[6] = system: rats with unilateral 6-OHDA lesions; assay: Rotation response in 6-OHDA rats after buccal delivery; format: in vivo, rat
6-OHDA rats = assay: Reversal of L-DOPA-induced dyskinesias in 6-OHDA rats (AIMS); format: in vivo, rat
Description: Animals were observed on Days 1, 3 and 5 and AIMS were scored. The day 5 scores were then used to separate the animals into three groups of 6 animals each. Group 1 continued with daily L-DOPA treatment. […] Treatment continued daily for 10 days and the amount of dyskinesia was scored on days 1, 5, 9 and 10.

human D2 receptor = molecular target: T3, human D2 receptor (Homo sapiens, UniProt P14416); assay: D2 cAMP assay; format: cell-based
T3 construct: expressed in transfected cells; host or cells: CHO cells
T3 sequence (P14416 whole entry): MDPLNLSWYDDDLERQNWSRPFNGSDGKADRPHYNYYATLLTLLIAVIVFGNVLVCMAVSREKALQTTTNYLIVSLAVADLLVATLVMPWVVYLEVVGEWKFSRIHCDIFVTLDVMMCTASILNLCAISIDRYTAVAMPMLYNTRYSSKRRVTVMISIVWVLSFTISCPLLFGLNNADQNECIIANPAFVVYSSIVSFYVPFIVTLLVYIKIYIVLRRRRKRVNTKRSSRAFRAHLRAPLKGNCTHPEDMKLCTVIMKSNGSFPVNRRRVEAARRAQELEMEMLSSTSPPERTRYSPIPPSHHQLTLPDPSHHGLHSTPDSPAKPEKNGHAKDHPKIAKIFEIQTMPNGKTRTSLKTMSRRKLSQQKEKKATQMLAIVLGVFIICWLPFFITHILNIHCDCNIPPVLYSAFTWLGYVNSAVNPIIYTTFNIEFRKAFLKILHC
Procedure: The ability of the compounds to either stimulate or inhibit the D2 receptor mediated inhibition of cAMP formation in CHO cells transfected with the human D2 receptor was measured as follows. Cells were seeded in 96 well plates at a concentration of 8000 cells/well 3 days prior to the experiment. On the day of the experiment the cells were washed once in preheated G buffer (1 mM MgCl2, 0.9 mM CaCl2, 1 mM IBMX in PBS) and the assay was initiated by addition of 100 micro-1 of a mixture of 1 micro-M quinpirole, 10 microM forskolin and test compound in G buffer (antagonism) or 10 micro-M forskolin and test compound in G buffer (agonism).

[7] = read-out: intrinsic activity (efficacy)

With `CCCN1CCC[C@@H]2Cc3c(ccc(O)c3O)C[C@H]21` [compound 10, (4aR,10aR)-1-n-Propyl-1,2,3,4,4a,5,10,10a-octahydro-benzo[g]quinoline-6,7-diol hydrobromide] the EC50 [1] was 15.5 nM, the Emax [1, 7] was 100% and the EC50 [2] was 0.06 nM. For the same compound, the Emax ([2]; CHO-Ga16, read-out: intrinsic activity (efficacy)) was 95%, the “MED (minimum effective dose to induce rotation)” value ([3]; dosed SC, 6-OHDA rats) was 0.65 µg/kg and the “MEDNemonapride (MED to overcome Nemonapride block)” value ([3]; dosed SC, 6-OHDA rats, * = rotations could not be blocked by SCH23390) was 1.3 µg/kg. For the same compound, the “mixed D1/D2 ratio” value ([3]; subcutaneous, 6-OHDA rat rotation model) was “about 2”, the “reversal of reserpine-induced hypomotility” value (reserpinesed rats; administered buccally) was “reversed the hypomotility” and the “reversal of reserpine-induced hypomotility” value (reserpinesed rats; administered subcutaneously) was “reversed the reserpine-induced hypomotility”. It also gave an activity count (reserpinesed rats; 0.05 mg/kg buccally) of 378, an activity count (reserpinesed rats; 0.10 mg/kg buccally) of 533 and an activity count (reserpinesed rats; apomorphine 1 mg/kg SC, compound 10 0.01 mg/kg SC, controls: vehicle 486, reserpine/vehicle 17) of 308. For the same compound, the “reversal of motility deficits” value (MPTP/AMPT mouse model; MPTP/AMPT mice, all dosed subcutaneously) was “restored locomotion in the mice in a dose-dependent manner”, the “activity count (0.5-1.5 h)” value (MPTP/AMPT mouse model; Table 4c, 0.003 mg/kg SC, controls: vehicle 405, AMPT/vehicle 12) was 8 and the “activity count (0.5-1.5 h)” value (MPTP/AMPT mouse model; Table 4c, 0.01 mg/kg SC) was 228. The “activity count (0.5-1.5 h)” value (MPTP/AMPT mouse model; Table 4c, 0.03 mg/kg SC) was 440, the “activity count (0.5-1.5 h)” value (MPTP/AMPT mouse model; Table 4e direct comparison, apomorphine 1 mg/kg SC, pramipexole 1 mg/kg SC, compound 10 0.030 mg/kg SC, controls: vehicle 509, AMPT/vehicle 2) was 690 and the “mean number of rotations over 3 h” value ([4]; 0.127 mg/kg transdermally (ears)) was 482. For the same compound, the “mean number of rotations over 3 h” value ([4]; 0.254 mg/kg transdermally (ears)) was 837, the “mean number of rotations over 3 h” value ([4]; 0.381 mg/kg transdermally (ears)) was 1448 and the “induction of circling behavior” value ([4]; transdermal delivery, three dose groups) was “induced circling behavior in all three groups”. For the same compound, the “mean number of rotations (0-3 h)” value ([5]; group 1, intranasal 1 microg/kg) was 401, the “mean number of rotations (0-3 h)” value ([5]; group 2, intranasal 10 microg/kg) was 691 and the “mean number of rotations (0-3 h)” value ([5]; group 3, intranasal 25 microg/kg) was 1286. For the same compound, the “mean number of rotations (0-3 h)” value ([5]; group 4, intranasal 50 microg/kg) was 2122, the “mean number of rotations over 3 h” value ([6]; 0.1 mg/kg buccally) was 1203 and the induction of rotation ([6]; apomorphine subcutaneous, compound 10 buccal) was “induced circling behavior”. The “dyskinesias versus other groups (two-way repeated measures ANOVA)” value (6-OHDA rats; L-DOPA-primed 6-OHDA rats, 10 days treatment) was “significantly fewer dyskinesias than both the pramipexole group and the L-DOPA/Benserazide group”, the “mean AIM score (days 1, 5, 9, 10)” value (6-OHDA rats; after 7 days L-DOPA/Benserazide priming, once daily days 1-10: L-DOPA/Benserazide 6/15 mg/kg SC, compound 10 0.0013 mg/kg SC, pramipexole […] SC) was 44 and the EC50 (human D2 receptor) was 0.11 nM. For the same compound, the Emax (human D2 receptor; [7]) was 100%.
